# Test results published in patent US11779600B2, “Methods of treating or preventing alzheimer's disease and associated conditions” (CEDARS-SINAI MEDICAL CENTER, priority 2016, dated 2023).
# Assays:
# [1] = system: MMP-9; test: MMP-9 expression in macrophages by quantitative ICC; type: cell-based, mouse; details: quantitative ICC (FIG. 16F-16G)
# Procedure: To test amyloid-β phagocytosis by macrophage, in repeated experiments monocytes were isolated from the bone marrow of wild-type mice (n=18 mice) and differentiated into macro-phage by 7-day cultivation in complete RPMI-1640 medium (#21870; Life Technologies) with 10% serum and 20 ng/ml MCSF (#315-02; PeproTech). Bone marrow-derived macrophages (MΦBM) were generated from femurs and tibiae cultured for 6-7 days in complete RPMI 1640 medium (Life Technologies) with 10% FBS, 100 U/ml penicillin, 100 μg/ml streptomycin, 2 mM L-glutamine and 20 ng/ml MCSF (PeproTech). Primary cultures of macrophage were then plated at 1.2×10^5 cells per well (3-4 wells for each condition) in 24-well tissue-culture plates on glass cover-slips overnight. Next, macrophages were either treated with 30 μg/ml GA (Copaxone®; TEVA Neuroscience), Brefeldin A (BFA; Sigma, 1X), or 10 μM Minocycline (Sigma) for the duration of 1, 3, or 24 h, or not treated (control group). […] The fluorescent signal and its total area were determined and quantified by the conversion of individual images to greyscale and standardizing to baseline using histogram-based thresholds with NIH ImageJ software. […]
# Next, MMP-9 expression and OPN proteolytic fragments were analyzed. […]
# [2] = system: ADtg mice; test: Barnes maze behavioral test in AD mice; type: in vivo, mouse
# Procedure: ADtg mice (10 months old) received subcutaneous injections of GA [also known as Cop-1 and Copaxone®; 100 μg in phosphate-buffered saline (PBS)] or PBS alone (control group) twice a week for 1 week and then once a week for 8 weeks. For evaluation of innate immune infiltration to the brain by flow cytometry, 10-month-old ADtg mice received subcutaneous injections of GA (100 mg in PBS) or PBS alone twice a week for 1 week and then once a week for 3 weeks. At the end of the study, all mice were anaesthetized and then perfused with ice-cold PBS with 0.5 mM EDTA, after which their organs were collected and analyzed or fixed in 2.5% paraformaldehyde (Sigma-Aldrich), and cryoprotected with 30% sucrose for further histological analysis.
# CD115^+ monocytes from mice donors were isolated as previously reported (Koronyo et al., Brain: a journal of neurology 2015,138:2399-2422). […]
# The Barnes maze is a spatial-learning task that allows subjects to use spatial cues to locate a means of escape from a mildly aversive environment (open space with light projection); mice are required to use spatial cues to find an escape location. The mice are assessed for their ability to learn the location of an escape box over the course of 9 days in the Barnes maze apparatus. […]
substance,measurement,setting,value
glatiramer acetate [GA],increase of MMP-9 expression in macrophages,[1],2.7 fold
same,cognition,[2],retained cognition
